Reference: patent publication US20180280480A1, “COMPOSITIONS AND PEPTIDES HAVING DUAL GLP-1R AND GLP-2R AGONIST ACTIVITY” (priority 2014, published 2018)
Like-named read-outs stand apart in the source and are kept apart here. Ends that are not written are not given here.

Columns and labels:
C57BL/6J mice [1] = tested on: C57BL/6J mice
Description: The subcutaneous injections were placed at the lower back. On study day 8, the mice were terminated and the GI tract was removed for weight determination.

C57BL/6J mice [2] = assay: Gut proliferation in C57BL/6J mice, PoC study 2 (liraglutide and teduglutide); assay type: in vivo
Description: (§1) Forty (40, n=10, 4 groups) male C57BL/6J mice obtained from Taconic, Denmark, were used. At the time of the experiment, the mice had reached an age of 9-10 weeks. The mice were acclimatized for one week in their new environment and offered regular chow diet (Altromin 1324, Brogaarden A/S, Denmark) and domestic quality tap water. Animals were housed two per cage during the study, in a light-, temperature-, and humidity-controlled room (12-hour light: 12-hour dark cycle, lights on/off at 4 AM/4 PM hour; 22±1° C.; 50±10% relative humidity). […] Animals were uniquely identified with implantable microchips (Pet ID Microchip, E-vet) in all mice upon arrival. Animals were identified using the WS-2 weight station (MBrose ApS, Faaborg, Denmark) connected to a laptop running the HM02Lab software (Ellegaard Systems, Faaborg, Denmark). The HM02Lab software matches the body weight with ID and calculates the dose directly based on the body weight. All mice were handled for 3 days prior to the experiment to acclimatize the animals to handling and injections.

C57BL/6J mice [3] = assay: GLP1R-GLP2R dual agonist compound study: gut wet weight; assay type: in vivo; settings: Day 8; 3.0 mg/kg BID SC; mean ± S.E.M.
Description: On study day 8, the mice were terminated and the GI tract was removed for determination of the gut wet weight. The gut wet weight results are listed below in Table 12.

C57BL/6J mice [4] = assay: GLP1R-GLP2R dual agonist compound study: cumulative food intake; assay type: in vivo; settings: Day 0-7; 3.0 mg/kg BID SC; mean ± S.E.M.
Description: as §1

GLP-2R = biological target: T1, GLP-2R (Homo sapiens, UniProt O95838); assay: GLP2 receptor efficacy assay (in vitro functional screen, Euroscreen or DiscoveRx); settings: EC50 of native GLP-2 / EC50 of compound
T1 sequence (O95838 1-553): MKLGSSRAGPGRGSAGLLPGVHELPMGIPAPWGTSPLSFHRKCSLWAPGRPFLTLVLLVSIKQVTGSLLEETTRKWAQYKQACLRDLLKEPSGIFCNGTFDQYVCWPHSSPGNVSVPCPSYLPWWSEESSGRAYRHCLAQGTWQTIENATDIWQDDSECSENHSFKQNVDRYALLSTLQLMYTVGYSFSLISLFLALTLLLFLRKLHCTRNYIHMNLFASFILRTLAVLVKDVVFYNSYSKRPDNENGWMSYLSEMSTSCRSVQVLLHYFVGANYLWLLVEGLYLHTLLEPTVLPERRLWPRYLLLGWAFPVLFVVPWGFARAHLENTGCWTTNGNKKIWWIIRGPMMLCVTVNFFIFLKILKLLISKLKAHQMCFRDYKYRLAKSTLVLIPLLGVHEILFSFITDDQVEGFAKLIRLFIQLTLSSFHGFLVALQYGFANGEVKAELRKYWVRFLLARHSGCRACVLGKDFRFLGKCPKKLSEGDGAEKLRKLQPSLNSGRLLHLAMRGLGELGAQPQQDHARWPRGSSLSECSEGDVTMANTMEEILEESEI

C57BL/6J mice [5] = assay: GLP1R-GLP2R dual agonist compound study: oral glucose tolerance test; assay type: in vivo; settings: Day 7; 3.0 mg/kg BID SC; glucose 2 g/kg oral; mean ± S.E.M.
Procedure: On day 7, an oral glucose tolerance test (OGTT) was performed. Animals were mildly fasted as all food was removed 4 hours prior to the oral glucose load. Vehicle (SC) and compounds were administered subcutaneously (SC) 2 hours prior to the OGTT. At t=0 mice received an oral glucose load (2 g/kg; 4 ml/kg; 500 mg/ml, Fresenius Kabi, Sweden). Glucose was given as gavage via a gastrically-placed tube connected to a syringe ensuring accurate dosing. Blood glucose was measured from tail vein blood before glucose (at t=−120 and 0 min, baseline) and after glucose administration at t=15, 30, 60 and 120 min. Blood samples (tail vein) was collected into 10 μl heparinized glass capillary tubes and immediately suspended in buffer (0.5 ml of glucose/lactate system solution (EKF-diagnostics, Germany) and analyzed for glucose on the test day using a BIOSEN c-Line glucose meter (EKF-diagnostics, Germany) according to manufacturer's instructions. Results from the OGTT are listed below in Table 11.

human GLP-1 receptor [6] = biological target: T2, human GLP-1 receptor (human, UniProt P43220 24-463, limits assumed); assay: cell-based or functional assay
human GLP-2 receptor [7] = biological target: T3, human GLP-2 receptor (human, UniProt O95838 1-553, limits assumed); assay: cell-based or functional assay
T3 sequence (looked up): T1 sequence (O95838 1-553)

human GLP-1 receptor [8] = biological target: T2, human GLP-1 receptor; assay: cell-based or functional assay; remark: listed apart in the source
human GLP-2 receptor [9] = biological target: T3, human GLP-2 receptor; assay: cell-based or functional assay; remark: listed apart in the source
[10] = Day 8, BID SC, liraglutide 0.2 mg/kg, teduglutide 1.0 mg/kg, alone or combined, mean ± S.E.M.

CC[C@H](C)[C@H](NC(=O)[C@H](Cc1ccccc1)NC(=O)[C@H](CC(=O)O)NC(=O)[C@H](CCCNC(=N)N)NC(=O)[C@H](C)NC(=O)[C@H](C)NC(=O)[C@H](CC(C)C)NC(=O)[C@H](CC(N)=O)NC(=O)[C@H](CC(=O)O)NC(=O)[C@H](CC(C)C)NC(=O)[C@@H](NC(=O)[C@@H](NC(=O)[C@H](CC(N)=O)NC(=O)[C@H](CCSC)NC(=O)[C@H](CCC(=O)O)NC(=O)[C@H](CC(=O)O)NC(=O)[C@H](CO)NC(=O)[C@H](Cc1ccccc1)NC(=O)[C@H](CO)NC(=O)CNC(=O)[C@H](CC(=O)O)NC(=O)[C@H](C)NC(=O)[C@@H](N)Cc1c[nH]cn1)[C@@H](C)O)[C@@H](C)CC)C(=O)N[C@@H](CC(N)=O)C(=O)N[C@@H](Cc1c[nH]c2ccccc12)C(=O)N[C@@H](CC(C)C)C(=O)N[C@H](C(=O)N[C@@H](CCC(N)=O)C(=O)N[C@H](C(=O)N[C@@H](CCCCN)C(=O)N[C@H](C(=O)N[C@H](C(=O)N[C@@H](CC(=O)O)C(=O)O)[C@@H](C)O)[C@@H](C)CC)[C@@H](C)O)[C@@H](C)CC [GLP-2]
Total intestine weight (C57BL/6J mice [1]; Day 8, 3 mg/kg BID SC, female C57BL/6J mice, mean ± S.E.M.): 1256 ± 30.1 mg | increase in intestinal weight compared to vehicle (C57BL/6J mice [1]; seven days of dosing, 3.0 mg/kg each BID SC): approx. 25%

CC[C@H](C)[C@H](NC(=O)[C@H](Cc1ccccc1)NC(=O)[C@H](CC(=O)O)NC(=O)[C@H](CCCNC(=N)N)NC(=O)[C@H](C)NC(=O)[C@H](C)NC(=O)[C@H](CC(C)C)NC(=O)[C@H](CC(N)=O)NC(=O)[C@H](CC(=O)O)NC(=O)[C@H](CC(C)C)NC(=O)[C@@H](NC(=O)[C@@H](NC(=O)[C@H](CC(N)=O)NC(=O)[C@H](CCSC)NC(=O)[C@H](CCC(=O)O)NC(=O)[C@H](CC(=O)O)NC(=O)[C@H](CO)NC(=O)[C@H](Cc1ccccc1)NC(=O)[C@H](CO)NC(=O)CNC(=O)[C@H](CC(=O)O)NC(=O)CNC(=O)[C@@H](N)Cc1c[nH]cn1)[C@@H](C)O)[C@@H](C)CC)C(=O)N[C@@H](CC(N)=O)C(=O)N[C@@H](Cc1c[nH]c2ccccc12)C(=O)N[C@@H](CC(C)C)C(=O)N[C@H](C(=O)N[C@@H](CCC(N)=O)C(=O)N[C@H](C(=O)N[C@@H](CCCCN)C(=O)N[C@H](C(=O)N[C@H](C(=O)N[C@@H](CC(=O)O)C(=O)O)[C@@H](C)O)[C@@H](C)CC)[C@@H](C)O)[C@@H](C)CC [Teduglutide]
Gut wet weight (C57BL/6J mice [2]; [10]): 2.6 ± 0.2 ^### g | Large intestine length (C57BL/6J mice [2]; [10]): 5.1 ± 0.6 cm | Large intestine weight (C57BL/6J mice [2]; [10]): 0.26 ± 0.03 g | Small intestine length (C57BL/6J mice [2]; [10]): 22.9 ± 1.6 cm | Small intestine weight (C57BL/6J mice [2]; [10]): 1.3 ± 0.2 g | effect of single treatment on gut weight and length (C57BL/6J mice [2]; PoC study 2, Tables 5, 6, 8, 9): increases in gut wet weight (Table 5), small intestine weight (Table 6) and small intestine length (Table 8) | Gut wet weight (C57BL/6J mice [3]): 3.0 ± 0.3 g | Cumulative food intake (C57BL/6J mice [4]): 31.82 ± 6.52 g | relative GLP-2 activity (GLP-2R): 1.0 | Oral glucose tolerance test AUC, 0-120 min (C57BL/6J mice [5]): 890 ± 182 mmol·min/L

B1: native human GLP-1 (ligand)
peptide: HAEGTFTSDVSSYLEGQAAKEFIAWLVKG
modifications: ends and bridges not checked
GLP-1R, EC50 (human GLP-1 receptor [6]): 0.004 nM | GLP-2R, EC50 (human GLP-2 receptor [7]): > 100 nM | GLP-1R, EC50 (human GLP-1 receptor [8]): 0.026 nM | GLP-2R, EC50 (human GLP-2 receptor [9]): > 1000 nM
